Tested on: IKZF1, ASS1 and SALL4 recruitment to CRBN
Test: Recruitment assessment: recruitment of any tested substrate from among IKZF1, ASS1 and SALL4
Assay type: cell-based
Conditions: any tested substrate at any tested compound concentration
Procedure: In this experimental set-up, cells were transfected with a construct encoding a CRBN-fusion protein and another one encoding a substrate-fusion protein. Test compound activity was assessed with increasing concentrations of test compounds (dose-response studies) to monitor the ability to promote CRBN-ligand-induced protein interaction.
Full size proteins were fused for each of the target proteins tested, except in the case of IKZF1 where isoform 7 was used. For the study, the following were used: IKZF1 recruitment: pSEL-CRBN+pMG1-IKZF1(isoform 7); ASS1 recruitment: pSEL-CRBN+pMG1-ASS1. SALL4 recruitment: pSEL-SALL4+pMG1-CRBN. […] Luciferase activity was measured 24 hours after test compound treatment using the Luciferase Assay System kit (PROMEGA, Madison, Wis.) with an Ensight plate reader (PERKIN ELMER LIFE SCIENCES, Waltham, Mass.). Data points depicted fold induction of the average luciferase activity of triplicate samples from EPO+test compound treated cells versus EPO only treated cells. Error bars represent standard deviations. Curves were fit using 4-parameter nonlinear regression in […] PRISM software.

| Compound | Recruitment Assessment |
| --- | --- |
| Nc1cccc2c1CN(C1CNC(=O)NC1=O)C2=O (stereo not shown) [C47928, 5-(4-amino-1-oxo-isoindolin-2-yl)hexahydropyrimidine-2,4-dione] | FALSE |
| Nc1cccc2c1CN(C1CCCC(=O)NC1=O)C2=O (stereo not shown) [C47932, 3-(4-amino-1-oxo-isoindolin-2-yl)azepane-2,7-dione] | TRUE |
| Nc1cccc2c1CCN(C1CCC(=O)NC1=O)C2=O (stereo not shown) [C47933, 3-(5-amino-1-oxo-3,4-dihydroisoquinolin-2-yl)piperidine-2,6-dione] | TRUE |
| O=C(O)CNc1ccc2c(c1)C(=O)N(C1CCC(=O)NC1=O)C2 (stereo not shown) [C47997, 2-[[2-(2,6-dioxo-3-piperidyl)-3-oxo-isoindolin-5-yl]amino]acetic acid] | FALSE |
| N#Cc1cccc2c1C(=O)N(C1CCC(=O)NC1=O)C2 (stereo not shown) [C48009, 2-(2,6-dioxo-3-piperidyl)-3-oxo-isoindoline-4-carbonitrile] | FALSE |
| O=C1CCC(N2Cc3cccc(-c4ccccc4)c3C2=O)C(=O)N1 (stereo not shown) [C48020, 3-(1-oxo-7-phenyl-isoindolin-2-yl)piperidine-2,6-dione] | FALSE |
| O=C1N=CC(N2C(=O)c3ccccc3C2=O)C(=O)N1 (stereo not shown) [C49278, 2-(2,6-dioxo-5H-pyrimidin-5-yl)isoindoline-1,3-dione] | FALSE |
| CN(C)CC(=O)Nc1ccc2c(c1)C(=O)N(C1CCC(=O)NC1=O)C2 (stereo not shown) [C49708, 2-(dimethylamino)-N-[2-(2,6-dioxo-3-piperidyl)-3-oxo-isoindolin-5-yl]acetamide] | FALSE |
| O=C1CCC(N2C(=O)c3ccccc3C2C2=c3ccccc3=NC2)C(=O)N1 (stereo not shown) [C49713, 3-[1-(2H-indol-3-yl)-3-oxo-isoindolin-2-yl]piperidine-2,6-dione] | FALSE |
| O=C1CCC(N2C(=O)C3CC=CCC3C2=O)C(=O)N1 (stereo not shown) [C51647, 2-(2,6-dioxo-3-piperidyl)-3a,4,7,7a-tetrahydroisoindole-1,3-dione] | FALSE |
| O=C1CCC(Nc2ncccn2)C(=O)N1 (stereo not shown) [C55468, 3-(pyrimidin-2-ylamino)piperidine-2,6-dione] | FALSE |
| Nc1cccc2c1CN(C1CCS(=O)(=O)NC1=O)C2=O (stereo not shown) [C55859, 4-(4-Amino-1-oxoisoindolin-2yl)-1,2-thiazinan-3-one 1,1-dioxide] | FALSE |
| COC1c2ccccc2C(=O)N1C1CCC(=O)NC1=O (stereo not shown) [C56572, 3-(1-methoxy-3-oxo-isoindolin-2-yl)piperidine-2,6-dione] | FALSE |
| Cc1ccc(NC(=O)NCc2cc(C)c3c(c2)CN(C2CCC(=O)NC2=O)C3=O)cc1Cl (stereo not shown) [C58181, 1-(3-chloro-4-methyl-phenyl)-3-[[2-(2,6-dioxo-3-piperidyl)-7-methyl-1-oxo-isoindolin-5-yl]methyl]urea] | TRUE |
| O=C1CCC(N2Cn3c(cccc3=O)C2=O)C(=O)N1 (stereo not shown) [C60651, 2-(2,6-dioxo-3-piperidyl)-3H-imidazo[1,5-a]pyridine-1,5-dione] | FALSE |
| O=C1CCC(N2C(=O)C=C(c3ccccc3)C2=O)C(=O)N1 (stereo not shown) [C64319, 3-(2,5-dioxo-3-phenyl-pyrrol-1-yl)piperidine-2,6-dione] | FALSE |
| O=C1CCC(N2C(=O)C3=C(CCC3)C2=O)C(=O)N1 (stereo not shown) [C64324, 2-(2,6-dioxo-3-piperidyl)-5,6-dihydro-4H-cyclopenta[c] pyrrole-1,3-dione] | FALSE |

| Compound | Recruitment Assessment |
| --- | --- |
| O=C1CCC(N2C(=O)CC3(Cc4ccccc4C3)C2=O)C(=O)N1 (stereo not shown) [C64329, 1′-(2,6-dioxo-3-piperidyl)spiro[indane-2,3′-pyrrolidine]-2′,5′-dione] | FALSE |
| O=C1CCC(N2C(=O)CC(NC(=O)OCc3ccccc3)C2=O)C(=O)N1 (stereo not shown) [C64344, benzyl N-[1-(2,6-dioxo-3-piperidyl)-2,5-dioxo-pyrrolidin-3-yl]carbamate] | FALSE |
| O=C1CCC(N2C(=O)CC3(CCOCC3)C2=O)C(=O)N1 (stereo not shown) [C64348, 2-(2,6-dioxo-3-piperidyl)-8-oxa-2-azaspiro[4.5]decane-1,3-dione] | FALSE |
| CN1CCC2(CC1)CC(=O)N(C1CCC(=O)NC1=O)C2=O (stereo not shown) [C64372, 2-(2,6-dioxo-3-piperidyl)-8-methyl-2,8-diazaspiro[4.5]decane-1,3-dione] | FALSE |
| Cc1nc(N(C)C)cc2c1C(=O)N(C1CCC(=O)NC1=O)C2=O (stereo not shown) [C64376, 6-(dimethylamino)-2-(2,6-dioxo-3-piperidyl)-4-methyl-pyrrolo[3,4-c] pyridine-1,3-dione] | FALSE |
| NCc1ccc2c(c1)C(=O)N(C1CCC(=O)NC1=O)C2 (stereo not shown) [C66979, 3-[6-(aminomethyl)-1-oxo-isoindolin-2-yl]piperidine-2,6-dione] | FALSE |
| Cc1cccc2c1C(=O)N(C1CCC(=O)NC1=O)S2(=O)=O (stereo not shown) [C73349, 3-(4-methyl-1,1,3-trioxo-1,2-benzothiazol-2-yl)piperidine-2,6-dione] | FALSE |
| COc1ccc(Br)c2c1C(=O)N(C1CCC(=O)NC1=O)C2 (stereo not shown) [C74668, 3-(4-bromo-7-methoxy-1-oxo-isoindolin-2-yl)piperidine-2,6-dione] | FALSE |
| Cc1cccc2c1S(=O)(=O)N(C1CCC(=O)NC1=O)C2=O (stereo not shown) [C75688, 3-(7-methyl-1,1,3-trioxo-1,2-benzothiazol-2-yl)piperidine-2,6-dione] | FALSE |
| Cl.NC1Cc2ccccc2C1=O (stereo not shown) [C75987, 2-aminoindan-1-one; hydrochloride] | FALSE |
| O=C1CCC(N2Cc3cc(Nc4ncnc5sccc45)ccc3C2=O)C(=O)N1 (stereo not shown) [C80370, 3-[1-oxo-5-(thieno[2,3-d]pyrimidin-4-ylamino)isoindolin-2-yl] piperidine-2,6-dione] | FALSE |
| O=C1CCC(N2Cc3cc(Nc4ncnc5ccccc45)ccc3C2=O)C(=O)N1 (stereo not shown) [C80373, 3-[-oxo-5-(quinazolin-4-ylamino)isoindolin-2-yl]piperidine-2,6-dione] | TRUE |
| Cn1ncc2c(Nc3ccc4c(c3)CN(C3CCC(=O)NC3=O)C4=O)ncnc21 (stereo not shown) [C80374, 3-[5-[(1-methylpyrazolo[3,4-d]pyrimidin-4-yl)amino]-1-oxo-isoindolin-2-yl]piperidine-2,6-dione] | TRUE |
| Nc1nccc(Nc2ccc3c(c2)CN(C2CCC(=O)NC2=O)C3=O)n1 (stereo not shown) [C80375, 3-[5-[(2-aminopyrimidm-4-yl)amino]-1-oxo-isoindolin-2-yl] piperidine-2,6-dione] | FALSE |
| Nc1nc(Nc2ccc3c(c2)CN(C2CCC(=O)NC2=O)C3=O)nc2sccc12 (stereo not shown) [C80379, 3-[5-[(4-aminothieno[2,3-d]pyrimidin-2-yl)amino]-1-oxo-isoindolin-2-yl]piperidine-2,6-dione] | TRUE |
| CC(=O)O.O=C1CCC(N2Cc3ccc(Nc4ncnc5ccccc45)cc3C2=O)C(=O)N1 (stereo not shown) [C80382 acetic acid salt, acetic acid; 3-[1-oxo-6-(quinazolin-4-ylamino)isoindolin-2-yl]piperidine-2,6-dione] | FALSE |
| Cn1ncc2c(Nc3ccc4c(c3)C(=O)N(C3CCC(=O)NC3=O)C4)ncnc21 (stereo not shown) [C80383, 3-[6-[(1-methylpyrazolo[3,4-d]pyrimidin-4-yl)amino]-1-oxo-isoindolin-2-yl]piperidine-2,6-dione] | FALSE |

Source: patent US20230111853A1, “COMPOUNDS MODULATING PROTEIN RECRUITMENT AND/OR DEGRADATION” (Orionis Biosciences, Inc., priority 2019, published 2023)
